Assays:
[1] = tested on: B/Florida/04/2006 (Yamagata lineage); parameters: species or system BALB/c mice; conditions: mouse, in vivo
[2] = tested on: CD8+ OT-1 T cells cultured with BMDCs; test: OT-1 CD8 T cell proliferation assay (antigen cross-presentation); type: cell-based, C57BL/6 mice; conditions: BMDCs with 1Z105 2 μM or MPLA 1 μg/ml overnight, OVA 10 μg/ml, 3 days
Procedure: (§1) (A) Upregulation of antigen uptake by 1Z105. BMDCs prepared from C57BL/6 mice were incubated with 10 μM 1Z105 or MPLA overnight. Antigen, Alexa Fluor 488-conjugated ovalbumin (OVA-488), was added to the culture for the last 30 min of incubation. The cells were washed and stained for CD11c. OVA-associated dendritic cells in the CD11c^hi population were evaluated by flow cytometry. Cells incubated at 4° C. served as a negative control. (B and C) Enhancement of expression of costimulatory molecules by 1Z105.WT (B) or Tlr4^−/− (C) BMDCs were incubated with 1Z105 (10 or 2 μM) or MPLA (0.04 μg/ml) overnight, and expression of CD40 and CD86 was assessed by flow cytometric assay. (D) 1Z105 promotes antigen cross-presentation. Wild-type BMDCs were incubated with 1Z105 (2 μM) overnight, and OVA (10 μg/ml) was added to the culture for the last 4 h of incubation. The cells were washed and cultured with CFSE-labeled CD8^+ OT1Tcells for 3 days. OT-1 T-cell proliferation was monitored by flow-cytometric assay. […] Cytokine release of IL-1β, IL-6, IL-8, IL-12p70, and TNF-α was determined by Luminex bead assay. […]
Naive CD8^+ T cells from OT-1 C57BL/6 mice were isolated using an EasySep Mouse CD8^+ T Cell Isolation Kit and stained with carboxyfluorescein succinimidyl ester (CFSE) (10 μM). […] OT-1 T cell proliferation was monitored by CFSE dilution using a flow cytometer.

[3] = tested on: human monocyte-derived DCs; test: Cytokine induction of human monocyte-derived dendritic cells (Luminex); type: cell-based; conditions: 10 μM, 18 h
Procedure: as §1, with “Wild-type BMDCs were incubated with 1Z105 (2 μM) overnight, and OVA (10 μg/ml) was added to the culture for the last 4 h of incubation. The cells were washed and cultured with CFSE-labeled CD8^+ OT1Tcells for 3 days.” left out
Human primary dendritic cells (DCs) were generated. […] The supernatants were stored at −20° C. for later quantification of released cytokines. Quantification of IL-1β, IL-6, IL-8, IL-12p70, and tumor necrosis factor alpha (TNF-α) released in supernatants was performed using the Milliplex Multiplex Assays (Luminex; Millipore, Billerica, Mass.) according to the manufacturer's instructions. Data were analyzed using the Milliplex Analyst software (Millipore).

[4] = tested on: BMDC (C57BL/6); test: IL-6 and IP-10 release by BMDC with 1V270 with or without 1Z105; type: cell-based, C57BL/6 mice; conditions: 1V270 0.025 or 0.1 μM with 1Z105 5 μM
Procedure: To evaluate whether 1Z105 can enhance the proinflammatory cytokine induction by 1V270, BMDC (C57BL/6) were incubated with 1V270 (0.025, or 0.1 μM) in the presence or absence of 1Z105 (5 μM). […] Antigen presenting function was evaluated using splenocytes prepared from OVA MHC class II-restricted alpha beta T cell receptor (TCR) transgenic mice OT-II. Splenocytes were cultured with OVA peptide (OVA323-339) for 3 days with 1Z105, or 1V270 alone or in combination. The frequency of intracellular (IC) IFNγ expressing CD4 T cells was determined by flow cytometric assay. Treatment with 1V270 alone increased intracellular IFNγ (3.7 and 6.8% by 25 and 100 nM, respectively).

SMILES	mortality compared to the no-adjuvant group [1]	proliferation of OT-1 cells (antigen cross-presentation) [2]	proinflammatory cytokine release (IL-1β, IL-6, IL-8, IL-12p70, TNF-α) [3]	IL-6 release induced by 1V270 [4]	IP-10 release induced by 1V270 [4]
CCCCCCCCC=CCCCCCCCC(=O)OCC(COP(=O)(O)OCCNC(=O)c1ccc(Cn2c(=O)[nH]c3c(N)nc(OCCOC)nc32)cc1)OC(=O)CCCCCCCC=CCCCCCCCC (centres unmarked) [Compound 1V270]	significantly reduced	–	–	–	–
Cn1c2ccccc2c2nc(SCC(=O)NC3CCCCC3)n(-c3ccccc3)c(=O)c21 [Compound 1Z105]	–	induced proliferation of OT-1 cells	activated human monocyte-derived DCs, resulting in proinflammatory cytokine release	significantly enhanced	significantly enhanced
